# Test results: patent US9833497B2, “Human originated EGF domain proteins and use of the same” (CHENGDU SOURCEBIO LIMITED-LIABILITY COMPANY, priority 2013, dated 2017)
# Key:
# Assay type in all cases: cell-based
# [1] = tested on: Klebsiella pneumonia; experiment: MIC against Gram-negative bacteria: Klebsiella pneumonia; settings: for MIC against K. pneumonia / MIC (μg/mL) K. pneumonia: 96-well plate, 5×10^5 CFU/mL, 37° C., 10 h
# How it was run: (§1)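 Antibacterial activity of purified human EGF domain proteins: two-fold concentration series, triplicate wells, LB broth, 5×10^5 CFU/mL bacteria, 37° C shaking incubation. The lowest concentration without growth defines the MIC.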
# [2] = tested on: Aeromonas hydrophila; experiment: MIC against Gram-negative bacteria: Aeromonas hydrophila; settings: for MIC against A. hydrophila / MIC (μg/mL) A. hydrophila: 96-well plate, 5×10^5 CFU/mL, 37° C., 10 h
# How it was run: as §1
# [3] = tested on: E. coli BL21; experiment: MIC against Gram-negative bacteria: E. coli BL21; settings: for MIC against E. coli BL21 / MIC (μg/mL) E. coli BL21: 96-well plate, 5×10^5 CFU/mL, 37° C., 10 h
# How it was run: as §1
# [4] = tested on: Moraxella catarrhalis; experiment: MIC against Gram-negative bacteria: Moraxella catarrhalis; settings: for MIC against M. catarrhalis / MIC (μg/mL) M. catarrhalis: 96-well plate, 5×10^5 CFU/mL, 37° C., 10 h
# How it was run: as §1
# [5] = tested on: Citrobacter diversus; experiment: MIC against Gram-negative bacteria: Citrobacter diversus; settings: for MIC against C. diversus / MIC (μg/mL) C. diversus: 96-well plate, 5×10^5 CFU/mL, 37° C., 10 h
# How it was run: as §1
# [6] = tested on: Proteus mirabilis; experiment: MIC against Gram-negative bacteria: Proteus mirabilis; settings: for MIC against P. mirabilis / MIC (μg/mL) P. mirabilis: 96-well plate, 5×10^5 CFU/mL, 37° C., 10 h
# How it was run: as §1
# [7] = tested on: Enterobacter cloacae; experiment: MIC against Gram-negative bacteria: Enterobacter cloacae; settings: for MIC against E. cloacae / MIC (μg/mL) E. cloacae: 96-well plate, 5×10^5 CFU/mL, 37° C., 10 h
# How it was run: as §1
# [8] = tested on: Proteus vulgaris; experiment: MIC against Gram-negative bacteria: Proteus vulgaris; settings: for MIC against P. vulgaris / MIC (μg/mL) P. vulgaris: 96-well plate, 5×10^5 CFU/mL, 37° C., 10 h
# How it was run: as §1
# [9] = tested on: Serratia marcescens; experiment: MIC against Gram-negative bacteria: Serratia marcescens; settings: for MIC against S. marcescens / MIC (μg/mL) S. marcescens: 96-well plate, 5×10^5 CFU/mL, 37° C., 10 h
# How it was run: as §1
# [10] = tested on: E. coli DH5α; experiment: Antibacterial activity: MIC and growth curve against E. coli DH5α in 96-well plate; settings: minimal inhibitory concentration against E. coli DH5α; 96-well plate, 5×10^5 CFU/mL, 37° C., judged after 8 h
# How it was run: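 Log-phase bacteria (OD600 ~0.5) resuspended in LB at 5×10^5 CFU/mL, exposed to recombinant protein at 50, 25, 12.5 μg/mL final in triplicate, 37 °C shaking at 175 rpm. OD600 read every 30 min; MIC is lowest concentration showing no growth.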
# [11] = tested on: Pseudomonas aeruginosa; experiment: MIC against Gram-negative bacteria: Pseudomonas aeruginosa; settings: for MIC against P. aeruginosa / MIC (μg/mL) P. aeruginosa: 96-well plate, 5×10^5 CFU/mL, 37° C., 10 h
# How it was run: as §1
substance,measurement,setting,value
PRT533 (GTINSNLGYCQCKLHVEGPTCSRCKLLYWNLDKENPSGCSE; listed as Homo sapiens),MIC against K. pneumonia,[1],25 µg/mL
same,MIC against A. hydrophila,[2],25 µg/mL
same,MIC against E. coli BL21,[3],25 µg/mL
same,MIC against M. catarrhalis,[4],25 µg/mL
same,MIC against C. diversus,[5],12.5 µg/mL
same,MIC against P. mirabilis,[6],50 µg/mL
same,MIC against E. cloacae,[7],50 µg/mL
same,MIC against P. vulgaris,[8],25 µg/mL
same,MIC against S. marcescens,[9],12.5 µg/mL
same,MIC,[10],50 µg/mL
same,MIC against P. aeruginosa,[11],100 µg/mL
PRT1302 (QTSPCDQYECQNGAQCIVVQQEPTCRCPPGFAGPRCE; listed as Homo sapiens),MIC against K. pneumonia,[1]; Klebsiella pneumonia,50 µg/mL
same,MIC against A. hydrophila,[2]; Aeromonas hydrophila,12.5 µg/mL
same,MIC against E. coli BL21,[3]; E. coli BL21,50 µg/mL
same,MIC against M. catarrhalis,[4]; Moraxella catarrhalis,12.5 µg/mL
same,MIC against C. diversus,[5]; Citrobacter diversus,50 µg/mL
same,MIC against P. mirabilis,[6]; Proteus mirabilis,25 µg/mL
same,MIC against E. cloacae,[7]; Enterobacter cloacae,25 µg/mL
same,MIC against P. vulgaris,[8]; Proteus vulgaris,50 µg/mL
same,MIC against S. marcescens,[9]; Serratia marcescens,25 µg/mL
same,MIC,[10],12.5 µg/mL
same,MIC against P. aeruginosa,[11]; Pseudomonas aeruginosa,12.5 µg/mL
PRT935 (NIDECASNPCLNQGTCFDDISGYTCHCVLPYTGKNCQ; listed as Homo sapiens),MIC,"[1]; K. pneumonia, 10 h cultivation at 37° C.",12.5 µg/mL
same,MIC,"[2]; A. hydrophila, 10 h cultivation at 37° C.",25 µg/mL
same,MIC,"[3]; E. coli BL21, 10 h cultivation at 37° C.",25 µg/mL
same,MIC,"[4]; M. catarrhalis, 10 h cultivation at 37° C.",12.5 µg/mL
same,MIC,"[5]; C. diversus, 10 h cultivation at 37° C.",100 µg/mL
same,MIC,"[6]; P. mirabilis, 10 h cultivation at 37° C.",12.5 µg/mL
same,MIC,"[7]; E. cloacae, 10 h cultivation at 37° C.",25 µg/mL
same,MIC,"[8]; P. vulgaris, 10 h cultivation at 37° C.",12.5 µg/mL
same,MIC,"[9]; S. marcescens, 10 h cultivation at 37° C.",12.5 µg/mL
same,MIC,[10],12.5 µg/mL
same,MIC,"[11]; P. aeruginosa, 10 h cultivation at 37° C.",25 µg/mL
PRT4 (LDVTCNIKNGRCEQFCKNSADNKVVCSCTEGYRLAENQKSCE; listed as Homo sapiens),MIC (μg/mL) K. pneumonia,[1]; Klebsiella pneumonia,25 µg/mL
same,MIC (μg/mL) A. hydrophila,[2]; Aeromonas hydrophila,25 µg/mL
same,MIC (μg/mL) E. coli BL21,[3]; E. coli BL21,50 µg/mL
same,MIC (μg/mL) M. catarrhalis,[4]; Moraxella catarrhalis,25 µg/mL
same,MIC (μg/mL) C. diversus,[5]; Citrobacter diversus,12.5 µg/mL
same,MIC (μg/mL) P. mirabilis,[6]; Proteus mirabilis,25 µg/mL
same,MIC (μg/mL) E. cloacae,[7]; Enterobacter cloacae,12.5 µg/mL
same,MIC (μg/mL) P. vulgaris,[8]; Proteus vulgaris,50 µg/mL
same,MIC (μg/mL) S. marcescens,[9]; Serratia marcescens,25 µg/mL
same,MIC,[10],25 µg/mL
same,MIC (μg/mL) P. aeruginosa,[11]; Pseudomonas aeruginosa,25 µg/mL
PRT1322 (PIDPCRAGNGGCHGLATCRAVGGGQRVCTCPPGFGGDGFS; listed as Homo sapiens),MIC against K. pneumonia,[1]; Klebsiella pneumonia,25 µg/mL
same,MIC against A. hydrophila,[2]; Aeromonas hydrophila,12.5 µg/mL
same,MIC against E. coli BL21,[3]; E. coli BL21,25 µg/mL
same,MIC against M. catarrhalis,[4]; Moraxella catarrhalis,12.5 µg/mL
same,MIC against C. diversus,[5]; Citrobacter diversus,50 µg/mL
same,MIC against P. mirabilis,[6]; Proteus mirabilis,12.5 µg/mL
same,MIC against E. cloacae,[7]; Enterobacter cloacae,50 µg/mL
same,MIC against P. vulgaris,[8]; Proteus vulgaris,25 µg/mL
same,MIC against S. marcescens,[9]; Serratia marcescens,12.5 µg/mL
same,MIC,[10],12.5 µg/mL
same,MIC against P. aeruginosa,[11]; Pseudomonas aeruginosa,12.5 µg/mL
PRT31 (CDCYPVGSTSRSCAPHSGQCPCRPGALGRQCNSCDSPFAEVTASGC; listed as Homo sapiens),MIC (μg/mL) K. pneumonia,[1]; Klebsiella pneumonia,25 µg/mL
same,MIC (μg/mL) A. hydrophila,[2]; Aeromonas hydrophila,25 µg/mL
same,MIC (μg/mL) E. coli BL21,[3]; E. coli BL21,12.5 µg/mL
same,MIC (μg/mL) M. catarrhalis,[4]; Moraxella catarrhalis,12.5 µg/mL
same,MIC (μg/mL) C. diversus,[5]; Citrobacter diversus,12.5 µg/mL
same,MIC (μg/mL) P. mirabilis,[6]; Proteus mirabilis,25 µg/mL
same,MIC (μg/mL) E. cloacae,[7]; Enterobacter cloacae,12.5 µg/mL
same,MIC (μg/mL) P. vulgaris,[8]; Proteus vulgaris,50 µg/mL
same,MIC (μg/mL) S. marcescens,[9]; Serratia marcescens,25 µg/mL
same,MIC,[10],25 µg/mL
same,MIC (μg/mL) P. aeruginosa,[11]; Pseudomonas aeruginosa,12.5 µg/mL
PRT1246 (CKELCSCHPHGQCEDVTGQCTCHARRWGARCE; listed as Homo sapiens),MIC against K. pneumonia,[1]; Klebsiella pneumonia,25 µg/mL
same,MIC against A. hydrophila,[2]; Aeromonas hydrophila,25 µg/mL
same,MIC against E. coli BL21,[3]; E. coli BL21,25 µg/mL
same,MIC against M. catarrhalis,[4]; Moraxella catarrhalis,25 µg/mL
same,MIC against C. diversus,[5]; Citrobacter diversus,12.5 µg/mL
same,MIC against P. mirabilis,[6]; Proteus mirabilis,50 µg/mL
same,MIC against E. cloacae,[7]; Enterobacter cloacae,50 µg/mL
same,MIC against P. vulgaris,[8]; Proteus vulgaris,25 µg/mL
same,MIC against S. marcescens,[9]; Serratia marcescens,12.5 µg/mL
same,MIC,[10],50 µg/mL
same,MIC against P. aeruginosa,[11]; Pseudomonas aeruginosa,12.5 µg/mL
